Experimental data taken from PubChem BioAssay (NCI).
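Assay format: 96-well plates, 48-hour exposure. TGI denotes the concentration required for complete inhibition of growth.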

Columns and labels:
Assay in all cases: inhibition of tumour cell growth, NCI panel, 48 h
[1] = tested on: CAKI-1 renal
[2] = tested on: COLO 205 colon
[3] = tested on: HCC-2998 colon
[4] = tested on: HS 578T breast
[5] = tested on: HT29 colon
[6] = tested on: IGROV1 ovarian
[7] = tested on: MALME-3M melanoma
[8] = tested on: MCF7 breast
[9] = tested on: NCI-H23 lung
[10] = tested on: NCI-H522 lung
[11] = tested on: OVCAR-3 ovarian
[12] = tested on: OVCAR-8 ovarian
[13] = tested on: PC-3 prostate
[14] = tested on: RXF 393 renal
[15] = tested on: SF-295 CNS
[16] = tested on: SK-MEL-5 melanoma
[17] = tested on: SN12C renal
[18] = tested on: SR leukemia

## Cc1cc(NS(=O)(=O)c2ccc(Nc3c4ccccc4nc4ccc(C(=O)Nc5ccc(S(N)(=O)=O)cc5)cc34)cc2)no1
[1]
  TGI: > 100 µM
[2]
  TGI: > 100 µM
[3]
  TGI: > 100 µM
[4]
  TGI: > 100 µM
[5]
  TGI: > 100 µM
[6]
  TGI: > 100 µM
[7]
  TGI: > 100 µM
[8]
  TGI: > 100 µM
[9]
  TGI: > 100 µM
[10]
  TGI: > 100 µM
[11]
  TGI: > 100 µM
[12]
  TGI: > 100 µM
[13]
  TGI: > 100 µM
[14]
  TGI: > 100 µM
[15]
  TGI: > 100 µM
[16]
  TGI: > 100 µM
[17]
  TGI: > 100 µM
[18]
  TGI: > 100 µM

## COc1cc(N(CCC#N)CCC#N)ccc1/C(N=Nc1ccccc1)=N/NC(=O)c1cc(Br)ccc1O
[1]
  TGI: 61.4 µM
[2]
  TGI: 29.8 µM
[3]
  TGI: 48 µM
[4]
  TGI: > 100 µM
[5]
  TGI: 71.4 µM
[6]
  TGI: 35 µM
[7]
  TGI: > 100 µM
[8]
  TGI: 55.5 µM
[9]
  TGI: 49.8 µM
[10]
  TGI: 67.9 µM
[11]
  TGI: 83.5 µM
[12]
  TGI: > 100 µM
[13]
  TGI: > 100 µM
[14]
  TGI: 70.9 µM
[15]
  TGI: > 100 µM
[16]
  TGI: 42.3 µM
[17]
  TGI: 96.6 µM
[18]
  TGI: 43.7 µM

## C=C1C(=O)O[C@H]2[C@H]1CC(=O)/C(C)=C/CC[C@@]1(C)O[C@@H]21
[1]
  TGI: 1.28 µM
[2]
  TGI: 0.708 µM
[3]
  TGI: 6.02 µM
[4]
  TGI: 8.62 µM
[5]
  TGI: 4.53 µM
[6]
  TGI: 6.27 µM
[7]
  TGI: 3.48 µM
[8]
  TGI: 1.99 µM
[9]
  TGI: 4.03 µM
[10]
  TGI: 0.729 µM
[11]
  TGI: 0.6 µM
[12]
  TGI: 7.47 µM
[13]
  TGI: 6.1 µM
[14]
  TGI: 1.08 µM
[15]
  TGI: 31.6 µM
[16]
  TGI: 2.63 µM
[17]
  TGI: 3.93 µM
[18]
  TGI: 7.74 µM

## O=C(c1ccccc1)c1sc2c(=O)c(C(=O)c3ccccc3)c(C(=O)c3ccccc3)sc2c(=O)c1C(=O)c1ccccc1
[1]
  TGI: 34.5 µM
[2]
  TGI: > 100 µM
[3]
  TGI: 44 µM
[4]
  TGI: > 100 µM
[5]
  TGI: > 100 µM
[6]
  TGI: 69.2 µM
[7]
  TGI: > 100 µM
[8]
  TGI: > 100 µM
[9]
  TGI: > 100 µM
[10]
  TGI: 38.6 µM
[11]
  TGI: > 100 µM
[12]
  TGI: > 100 µM
[13]
  TGI: > 100 µM
[14]
  TGI: 72.3 µM
[15]
  TGI: > 100 µM
[16]
  TGI: > 100 µM
[17]
  TGI: > 100 µM
[18]
  TGI: > 100 µM

## COc1ccc(/C=C2\N=C(NN)N=C2Cl)cc1
[1]
  TGI: > 100 µM
[2]
  TGI: > 100 µM
[3]
  TGI: > 100 µM
[4]
  TGI: > 100 µM
[5]
  TGI: > 100 µM
[6]
  TGI: > 100 µM
[7]
  TGI: > 100 µM
[8]
  TGI: > 100 µM
[9]
  TGI: > 100 µM
[10]
  TGI: > 100 µM
[11]
  TGI: > 100 µM
[12]
  TGI: > 100 µM
[13]
  TGI: > 100 µM
[14]
  TGI: > 100 µM
[15]
  TGI: > 100 µM
[16]
  TGI: > 100 µM
[17]
  TGI: > 100 µM
[18]
  TGI: > 100 µM

## CN1CCC23c4c5ccc(O)c4OC2c2[nH]c4ccccc4c2CC3(O)C1C5 (centres undefined)
[1]
  TGI: > 100 µM
[2]
  TGI: 33.1 µM
[3]
  TGI: 32 µM
[4]
  TGI: 70.9 µM
[5]
  TGI: > 100 µM
[6]
  TGI: > 100 µM
[7]
  TGI: 36.8 µM
[8]
  TGI: > 100 µM
[9]
  TGI: > 100 µM
[10]
  TGI: > 100 µM
[11]
  TGI: > 100 µM
[12]
  TGI: > 100 µM
[13]
  TGI: > 100 µM
[14]
  TGI: 66.1 µM
[15]
  TGI: > 100 µM
[16]
  TGI: 27.1 µM
[17]
  TGI: > 100 µM
[18]
  TGI: > 100 µM

## C=CC[C@@]1(C)CCCCCCCCC[C@@](C)(CC=C)C1=O
[1]
  TGI: > 100 µM
[2]
  TGI: 42.3 µM
[3]
  TGI: 35 µM
[4]
  TGI: 42.9 µM
[5]
  TGI: 38.2 µM
[6]
  TGI: > 100 µM
[7]
  TGI: 58.1 µM
[8]
  TGI: > 100 µM
[9]
  TGI: 63.9 µM
[10]
  TGI: 59.4 µM
[11]
  TGI: 38.1 µM
[12]
  TGI: 57.9 µM
[13]
  TGI: > 100 µM
[14]
  TGI: 32.6 µM
[15]
  TGI: 37.4 µM
[16]
  TGI: 29.5 µM
[17]
  TGI: 76.8 µM
[18]
  TGI: 63.7 µM

## Cc1ccc(/C=C/C(=O)c2cc(CN(C)C)c(O)c(CN(C)C)c2)cc1
[1]
  TGI: 50.3 µM
[2]
  TGI: 22.5 µM
[3]
  TGI: 46.2 µM
[4]
  TGI: 86.7 µM
[5]
  TGI: 33 µM
[6]
  TGI: > 100 µM
[7]
  TGI: 35.6 µM
[8]
  TGI: 50.1 µM
[9]
  TGI: > 100 µM
[10]
  TGI: 31.7 µM
[11]
  TGI: 69.5 µM
[12]
  TGI: 78.9 µM
[13]
  TGI: 36.8 µM
[14]
  TGI: 55 µM
[15]
  TGI: 27.7 µM
[16]
  TGI: 30.6 µM
[17]
  TGI: 44 µM
[18]
  TGI: 62.7 µM

## NC(=Nc1ccc(O)cc1)S(=O)O
[1]
  TGI: > 100 µM
[2]
  TGI: > 100 µM
[3]
  TGI: > 100 µM
[4]
  TGI: > 100 µM
[5]
  TGI: > 100 µM
[6]
  TGI: > 100 µM
[7]
  TGI: > 100 µM
[8]
  TGI: > 100 µM
[9]
  TGI: > 100 µM
[10]
  TGI: > 100 µM
[11]
  TGI: > 100 µM
[12]
  TGI: > 100 µM
[13]
  TGI: > 100 µM
[14]
  TGI: > 100 µM
[15]
  TGI: > 100 µM
[16]
  TGI: > 100 µM
[17]
  TGI: > 100 µM
[18]
  TGI: > 100 µM

## O=C(NC(Nc1ccc(F)c(Cl)c1)(C(F)(F)F)C(F)(F)F)OCc1ccccc1
[1]
  TGI: > 100 µM
[2]
  TGI: 35.1 µM
[3]
  TGI: 64.8 µM
[4]
  TGI: > 100 µM
[5]
  TGI: > 100 µM
[6]
  TGI: > 100 µM
[7]
  TGI: > 100 µM
[8]
  TGI: 38.1 µM
[9]
  TGI: > 100 µM
[10]
  TGI: 42.1 µM
[11]
  TGI: 34.8 µM
[12]
  TGI: > 100 µM
[13]
  TGI: > 100 µM
[14]
  TGI: > 100 µM
[15]
  TGI: 91.7 µM
[16]
  TGI: > 100 µM
[17]
  TGI: > 100 µM
[18]
  TGI: 32.7 µM

## COc1cc2c(cc1OCc1ccccc1)NC(=S)[C@@H]1CCCN1C2=S
[1]
  TGI: > 100 µM
[2]
  TGI: > 100 µM
[3]
  TGI: > 100 µM
[4]
  TGI: > 100 µM
[5]
  TGI: > 100 µM
[6]
  TGI: > 100 µM
[7]
  TGI: > 100 µM
[8]
  TGI: > 100 µM
[9]
  TGI: > 100 µM
[10]
  TGI: > 100 µM
[11]
  TGI: > 100 µM
[12]
  TGI: > 100 µM
[13]
  TGI: > 100 µM
[14]
  TGI: > 100 µM
[15]
  TGI: > 100 µM
[16]
  TGI: > 100 µM
[17]
  TGI: > 100 µM
[18]
  TGI: > 100 µM

## COC(=O)[C@@H]1C[C@@H]2c3ccccc3N(S(=O)(=O)c3ccccc3)[C@@H]2N1C(=O)OC
[1]
  TGI: > 100 µM
[2]
  TGI: > 100 µM
[3]
  TGI: > 100 µM
[4]
  TGI: > 100 µM
[5]
  TGI: > 100 µM
[6]
  TGI: > 100 µM
[7]
  TGI: > 100 µM
[8]
  TGI: > 100 µM
[9]
  TGI: > 100 µM
[10]
  TGI: > 100 µM
[11]
  TGI: > 100 µM
[12]
  TGI: > 100 µM
[13]
  TGI: > 100 µM
[14]
  TGI: > 100 µM
[15]
  TGI: > 100 µM
[16]
  TGI: > 100 µM
[17]
  TGI: > 100 µM
[18]
  TGI: > 100 µM

## COc1cccc(C2C3=C(COC3=O)Oc3cc4c(cc32)OCO4)c1 (centres undefined)
[1]
  TGI: > 100 µM
[2]
  TGI: 0.631 µM
[3]
  TGI: 1.88 µM
[4]
  TGI: > 100 µM
[5]
  TGI: 1.3 µM
[6]
  TGI: > 64.9 µM
[7]
  TGI: > 100 µM
[8]
  TGI: > 100 µM
[9]
  TGI: 24.9 µM
[10]
  TGI: 0.0596 µM
[11]
  TGI: 0.43 µM
[12]
  TGI: 20 µM
[13]
  TGI: > 100 µM
[14]
  TGI: > 100 µM
[15]
  TGI: 0.228 µM
[16]
  TGI: > 43.1 µM
[17]
  TGI: > 100 µM
[18]
  TGI: > 100 µM
